According to patent publication US5773438A, “Synthetic matrix metalloprotease inhibitors and use thereof” (Glycomed Incorporated, priority 1994, dated 1998):

Experiments:
Stromelysin = Stromelysin (Homo sapiens, UniProt P08254); assay: inhibition of stromelysin (Table 2); format: biochemical; conditions: read-out: Strom inhibitory activity
Experimental: (§1) Specifically, assay of inhibition activity can be conducted as follows. […] Assays for inhibition of human stromelysin are conducted as described by Teahan, J., et al., Biochemistry (1989) 20:8497-8501.
(§2) Assay of inhibition activity can be conducted using a fluorogenic substrate developed by Knight et al., FEBS Letters (1992) 296:263. This method uses a fluorometer to determine the rate of substrate hydrolysis in a 96 well plate format. Reaction rates are determined at several substrate concentrations, and multiple inhibitor levels. The data are analyzed by Lineweaver-Burk, Dixon and Henderson plot analyses (Enzyme Kinetics (1975) Irwin Segal (John Wiley & Sons, Inc., publishers), and as described by Henderson, Biochem J. (1972) 127:321). The substrate levels range from 10-30μM. […] Inhibitors may be assayed against purified 72 kD gelatinase, 92 kD gelatinase, neutrophil collagenase, stromelysin or other proteases as appropriate. The enzymes are activated at 37° C. with APMA (4-aminophenylmercuric acetate), and the assays are carried out at room temperature.

[1] = tested on: protease activity of chronic wound fluid; assay: Azocoll assay of protease activity in chronic wound fluid; format: biochemical, human; conditions: FIG. 7; for inhibition of protease activity of chronic wound fluid: highest concentration (800 μg/ml)
Experimental: Fluids were collected from 3 types of human wounds termed closed spontaneously healing wounds, open slowly healing wounds, and open chronic wounds. In the first category were fluids collected from the chest wall of women following mastectomy surgery. Fluids from non-infected wounds that were left open for valid surgical reasons were considered open slowly healing wounds. An occlusive dressing was placed over the wound bed, and fluids were collected after 2-6 hours of occlusion. Finally, fluids were also collected from chronic open wounds by covering the wounds with occlusive dressings. Wounds were considered to be chronic if they were not clinically infected and had been open and not healing for more than 4 weeks.
The various wound fluids were assayed for matrix metalloproteinase activity using the Azocoll assay essentially as described by Chavira, et al., Analytic Biochemistry (1984), 136:446.
The fluids were centrifuged, and the supernatants filtered using a 0.45μ sterile Gelman filter. The filtrates were stored frozen at -80° C. until tested for protease activity.
The effects of four inhibitors on the protease activity present in wound fluids were determined. The inhibitors were: compounds
Stock solutions of the four inhibitors were all prepared at a concentration of 800 μg/ml. Due to different solubility properties of the inhibitors, different techniques were utilized. […] S1209 was dissolved in 1% DMSO then dissolved in 10 mM citrate, pH 5.5, containing 0.05% methyl cellulose. 39A was dissolved in propylene glycol (to give a final concentration of 2.4%) then dissolved in 1 mM CaCl2, 50 mM Tris-Cl, pH 7.8. 21A was dissolved in propylene glycol (2.4%) methyl cellulose (0.05%) and 10 mM citrate, pH 8.
The protease substrate, Azocoll, was obtained from Sigma Chemical Corporation and it is a substrate for collagenase/gelatinase-like metalloproteinase enzymes and general proteases. Clostridium histolyticum collagenase (the crude form of the enzyme) was from Worthington Biochemicals. General chemicals including TRIS buffer, DMSO, and CaCl2 were from Sigma Chemical Corporation.
Briefly, 900 μl of the Azocoll substrate suspension in buffer ([…] in 50 mM TRIS, pH 7.8, 1 mM CaCl2) was added to 1.5 ml microcentrifuge tubes then 50 μl of inhibitor (or buffer) and 50 μl of chronic wound fluid (or collagenase standard) were added to the reaction tube. The reaction tubes were placed at 37° C. in a shaker that inverted the tubes 30 times per minute. After 24 hours of incubation, the reaction tubes were centrifuges at 10,000 X g and the absorbance of the supernatant solution was measured at 520 nm with a Milton-Roy spectrophotometer. Proteolysis of Azocoll substrate generates soluble colored fragments from the insoluble Azocoll substrate. Wound fluid samples were incubated alone or with the inhibitors. Controls included incubation of the Azocoll substrate with the assay buffer to measure spontaneous degradation of the substrate. A standard curve for digestion of the Azocoll substrate was generated by incubation of the Azocoll with crude bacterial collagenase. Protease levels were expressed as net μg of collagenase equivalent per ml of chronic wound fluid. In the figures, certain of the wound fluids are referred to by an individual name.
For these experiments, due to the different solubility properties of the inhibitors, different techniques were utilized. […] S1209 was dissolved in 1% DMSO then dissolved in 10 mM citrate, pH 5.5, containing 0.05% methyl cellulose. 39A was dissolved in propylene glycol (to give a final concentration of 2.4%) then dissolved in 1 mM CaCl2, […] Tris-Cl, pH 7.8. 21A was dissolved in propylene glycol (2.4%) methyl cellulose (0.05%) and 10 mM citrate, pH 8.

[2] = target: T1, Human gingival fibrblast collagenase (Homo sapiens, UniProt P03956); assay: inhibition of human gingival fibroblast collagenase (Table 2); format: biochemical; conditions: read-out: HGFC inhibitory activity
T1 construct: endogenous in cells; host or cells: human gingival fibroblasts
T1 sequence (P03956 100-469): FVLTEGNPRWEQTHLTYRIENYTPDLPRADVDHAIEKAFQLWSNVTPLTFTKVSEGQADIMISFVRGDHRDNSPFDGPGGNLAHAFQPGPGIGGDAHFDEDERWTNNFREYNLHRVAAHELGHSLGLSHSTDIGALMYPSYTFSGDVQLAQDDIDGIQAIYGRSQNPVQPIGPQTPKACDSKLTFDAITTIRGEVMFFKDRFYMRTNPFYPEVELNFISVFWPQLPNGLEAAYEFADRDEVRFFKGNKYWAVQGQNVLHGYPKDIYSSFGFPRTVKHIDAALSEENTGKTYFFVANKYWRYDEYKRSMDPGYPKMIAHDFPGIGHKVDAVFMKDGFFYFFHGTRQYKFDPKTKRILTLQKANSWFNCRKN
Experimental: as §1, §2

[3] = target: T2, human skin fibroblast collagenase (Homo sapiens, UniProt P03956); assay: inhibition of collagenase, synthetic thiol ester substrate, Ki (Table 1); format: biochemical
T2 construct: endogenous in cells; host or cells: human skin fibroblasts
T2 sequence (P03956 100-469): T1 sequence (P03956 100-469)
Experimental: Specifically, assay of inhibition activity can be conducted as follows. Inhibitors may be assayed against crude or purified human skin fibroblast collagenase, or purified human gingival fibroblast collagenase using the synthetic thiol ester substrate at pH 6.5 exactly as described by Kortylewicz & Galardy, J Med Chem (1990) 33:263-273, at a collagenase concentration of 1-2 nM. The candidate inhibitors are tested for their ability to inhibit crude collagenase and gelatinase from human skin fibroblasts, crude collagenase and gelatinase from purulent human neutrophils in this assay.

[4] = tested on: PdiBu-Induced Epidermal Hyperplasia; assay: PdiBu-induced epidermal hyperplasia mouse model (psoriasis); format: in vivo, hairless mice; conditions: topical
Experimental: The phorbol ester, PdiBu (20 nmol in 20 μl if acetone) was applied to both ears of hairless mice (h/h) (approximately 1 cm^2 each). The test compounds (in total volume of 20 μl) were then applied to the right ear immediately (15 to 30 min) following PdiBu. The left ear of each animal received an equivalent amount (20 μl) of vehicle. Test compounds (and vehicle) were reapplied at 6 and 18 hours following PdiBu. Treatment times were staggered to allow exact time intervals to be obtained. At 30 hours after PdiBu, animals were anesthetized, and ear thickness values were obtained using a microcaliper. The weights of punch biopsies (6mm) were then obtained. Histology was performed on selected samples taken at 30 hours.
Left ear in each animal served as vehicle-treated controls (PdiBu+ETOH). Thus, the controls for this series include: 1) Untreated controls; 2) PdiBu plus vehicle alone (included for each mouse tested); 3) PdiBu plus AHA; 4) PdiBu plus Lidex® as a positive control.

Chain of Stromelysin (P08254 100-477): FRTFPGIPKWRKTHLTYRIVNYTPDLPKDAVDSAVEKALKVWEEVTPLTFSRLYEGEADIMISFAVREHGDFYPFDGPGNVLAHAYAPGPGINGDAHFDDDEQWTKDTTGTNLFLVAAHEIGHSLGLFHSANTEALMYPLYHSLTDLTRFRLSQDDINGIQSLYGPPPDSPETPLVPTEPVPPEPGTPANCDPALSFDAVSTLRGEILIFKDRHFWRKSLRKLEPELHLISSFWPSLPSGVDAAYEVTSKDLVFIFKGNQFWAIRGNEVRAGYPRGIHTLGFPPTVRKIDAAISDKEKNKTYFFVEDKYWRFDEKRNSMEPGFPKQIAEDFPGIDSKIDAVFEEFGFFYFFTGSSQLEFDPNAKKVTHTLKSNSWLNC

In the case of `CNC(=O)[C@H](Cc1c[nH]c2ccccc12)NC(=O)[C@H](CC(=O)NO)CC(C)C` [Compound 5B, N-[D,L-2-isobutyl-3-(N'-hydroxycarbonylamido)-propanoyl]-tryptophan methylamide], the Ki (Stromelysin) is reported as greater than 1000 nM.

For `CC(C)C[C@H](CC(=O)O)C(=O)N[C@@H](Cc1c[nH]c2ccccc12)C(=O)N[C@@H](C)c1ccccc1` [Compound 39A, N-(2R-2-Carboxymethyl-4-methylpentanoyl)-L-tryptophan (S)-methylbenzyl amide], the “effect on proteolytic degradation of Azocoll by chronic wound fluid” value [1] was “significantly less potent that 5A, 21A, or S1209”, the “increase in protease activity of chronic wound fluid” value ([1]; 0.8 μg/ml) was 30% and the “increase in protease activity of chronic wound fluid” value ([1]; 8 μg/ml) was 13%. For the same molecule, the “inhibition of protease activity of chronic wound fluid” value [1] was 23%.

`CC(C)C[C@H](CC(=O)O)C(=O)N[C@@H](Cc1c[nH]c2ccccc12)C(=O)NCCN1CCOCC1` [Compound 51] showed a Ki [2] of 32 nM.

`CNC(=O)[C@H](Cc1c[nH]c2ccccc12)NC(=O)C1CCCCC1C(=O)NO` (mixture of isomers) [29A,B, N-[(±)cis-2-(N'-hydroxyamidocarbonyl)-cyclohexylcarbonyl]-L-tryptophan methylamide] showed a Ki [3] greater than 10000 nM.

For `CC(C)CC(CC(=O)NO)C(=O)N[C@@H](Cc1c[nH]c2ccccc12)C(=O)O` (stereo partly drawn) [Compound 31A, N-[2-Isobutyl-3-(N'-hydroxyamidocarbonyl)-propanoyl]-L-tryptophan], the Ki [3] was 200 nM.

Work on `CC(C)CC(CC(=O)NO)C(=O)N[C@@H](Cc1c[nH]c2ccccc12)C(=O)NCCO` (single isomer, unassigned) [Compound 13A, N-[2-isobutyl-3-(N'-hydroxyamidocarbonyl)-propanoyl]-L-tryptophan 2-hydroxyethylamide] yielded a Ki [2] of 1 nM and a Ki [3] of 20 nM.

`CC(=O)OCC(=O)[C@@]12OC(C)(C)O[C@@H]1C[C@H]1[C@@H]3C[C@H](F)C4=CC(=O)C=C[C@]4(C)[C@@]3(F)[C@@H](O)C[C@@]12C` [Lidex, fluocinonide, reference compound] was tested, and the “effect on PdiBu-induced ear thickness” value [4] was “significantly inhibited” and the “effect on PdiBu-induced increase in punch biopsy weight” value [4] was “significantly inhibited”.

For `CC(C)CC(CC(=O)NO)C(=O)N[C@@H](Cc1c[nH]c2ccccc12)C(=O)N1CCCCC1` (stereo partly drawn) [17A,B, N-[2-isobutyl-3-(N'-hydroxyamidocarbonyl)-propanoyl]-L-tryptophan piperidinamide], the Ki [3] was 200 nM.

For `CC(C)CC(CC(=O)NO)C(=O)N[C@@H](Cc1c[nH]c2ccccc12)C(=O)N[C@@H](C)c1ccccc1` (single isomer, unassigned) [Compound 21A], the “inhibition of protease activity of chronic wound fluid” value [1] was 94% and the Ki [3] was 3 nM.

For `COC(=O)CC(CC(C)C)C(=O)N[C@@H](Cc1c[nH]c2ccccc12)C(=O)N[C@@H](C)c1ccccc1` (single isomer, unassigned) [Compound 20A], the Ki [2] was 0.2 nM.

With `CNC(=O)[C@H](Cc1c[nH]c2ccccc12)NC(=O)[C@@H]1CCCC[C@@H]1C(=O)O` (mixture of isomers) [Compound 35, N-[(+)cis-2-carboxy-cyclohexylcarbonyl]-L-tryptophan methylamide] the Ki [3] was greater than 10000 nM.

Work on `CC(C)CC(CC(=O)O)C(=O)N[C@@H](Cc1c[nH]c2ccccc12)C(=O)NCC(=O)O` (single isomer, unassigned) [Compound 34B, N-[N-(2-Isobutyl-3-carboxypropanoyl)-L-tryptophanyl]glycine] yielded a Ki [3] greater than 10000 nM.

`CC(C)CC(CC(=O)O)C(=O)N[C@@H](Cc1c[nH]c2ccccc12)C(=O)NCCCCCCN` (stereo partly drawn) [Compound 32A, N-(D,L-2-Isobutyl-3-carboxypropanoyl)-L-tryptophan (6-aminohexyl-1)amide] gave a Ki [3] greater than 10000 nM.

In the case of `CNC(=O)[C@H](Cc1c[nH]c2ccccc12)NC(=O)[C@@H]1CCCC[C@H]1C(=O)O` (mixture of isomers) [Compound 36, N-[(+)trans-2-carboxy-cyclohexylcarbonyl]-L-tryptophan methylamide], the Ki [3] is reported as greater than 10000 nM.

Molecule `CC(C)CC(CC(=O)O)C(=O)N[C@@H](Cc1c[nH]c2ccccc12)C(=O)NCC(=O)O` (single isomer, unassigned) [Compound 34A, N-[N-(2-Isobutyl-3-carboxypropanoyl)-L-tryptophanyl]glycine] has a Ki [3] greater than 10000 nM.
